Reference: US20260345619A1 (Principia Biopharma Inc., priority 2023, published 2026)

Experiment: Loss of asthma control (LOAC) events, 12-week ICS/LABA withdrawal study
Type: in vivo, human
Conditions: 400 mg TID
Description: The general construct of this 12-week Loss of Asthma Control (LOAC) study consisted of a 4-week standardized ICS/LABA background therapy stabilization phase, a 4or 5-week background therapy withdrawal phase and a 3- or 4-week no background therapy phase, followed by a 4-week post IMP treatment safety follow-up period at the beginning of which, pre-screening asthma controller medications are restarted. Participants had access to short-acting β-agonist (SABA) reliever medication at all times during the protocol.
The primary endpoint was the proportion of patients with LOAC. The key secondary endpoint for the study was change in pre-bronchodilator FEV1 from baseline at EOT.
The primary endpoint was proportion of participants with LOAC during the 12-week treatment period.
Note that if the number of participants in some regions was too low, these regions may have been pooled with other regions. This strategy also applied to all the rest of the analyses where region was one of the covariates.
To assess the consistency in treatment effects across different subgroup levels, subgroup analyses were to be performed for the primary efficacy endpoint with respect to age group, gender, region, and other factors.
Secondary endpoints included pre-bronchodilator FEV1 change from baseline at EOT, ACQ-5 score change from baseline, and AQLQ score change from baseline. Other secondary and exploratory endpoints are described in Table 2.

[1] = all others than low EOS and low FeNO
[2] = baseline IgA <Median (2190) mg/L
[3] = baseline IgA ≥Median (2190) mg/L
[4] = baseline IgE <Median (121.85) IU/mL
[5] = baseline IgE ≥Median (121.85) IU/mL
[6] = baseline pre-BD FEV1 <Median (2.1955) L
[7] = baseline pre-BD FEV1 ≥Median (2.1955) L
[8] = blood eosinophil level 1 <0.15 (10^9/L)
[9] = blood eosinophil level 1 ≥0.15-<0.3 (10^9/L)
[10] = blood eosinophil level 1 ≥0.3 (10^9/L)
[11] = blood eosinophil level 2 <0.3 (10^9/L)
[12] = blood eosinophil level 2 ≥0.3 (10^9/L)
[13] = low EOS (<0.15) and low FeNO (<25)
[14] = percent predicted FEV1 group 1 <Median (77)
[15] = percent predicted FEV1 group 1 ≥Median (77)
[16] = percent predicted FEV1 group 2 <80
[17] = percent predicted FEV1 group 2 ≥80

For `CC(C)(C=C(C#N)C(=O)N1CCC[C@@H](n2nc(-c3ccc(Oc4ccccc4)cc3F)c3c(N)ncnc32)C1)N1CCN(C2COC2)CC1` (mixture of isomers) [rilzabrutinib, (R)-2-[3-[4-amino-3-(2-fluoro-4-phenoxy-phenyl)pyrazolo[3,4-d]pyrimidin-1-yl]piperidine-1-carbonyl]-4-methyl-4-[4-(oxetan-3-yl)piperazin-1-yl]pent-2-enenitrile], which OR vs. placebo [1] is on record?
The OR vs. placebo was 0.752.

And the “RD vs. Placebo” value [1]?
The value was −0.049.

And the “LOAC, number” value (atopic medical conditions: No)?
Its value is 8.

And the OR vs. placebo (atopic medical conditions: No)?
Its OR vs. placebo is 0.493.

And the “RD vs. Placebo” value (atopic medical conditions: No)?
Its value is −0.130.

And the “LOAC, number” value (atopic medical conditions: Yes)?
The value was 4.

What about the OR vs. placebo (atopic medical conditions: Yes) of the same compound?
Its OR vs. placebo is 0.821.

And the “RD vs. Placebo” value (atopic medical conditions: Yes)?
The value was −0.031.

And the “LOAC, number” value (background ICS dose High)?
The value was 6.

And the OR vs. placebo (background ICS dose High)?
Its OR vs. placebo is 0.911.

And the RD vs. Placebo (background ICS dose High)?
The RD vs. Placebo was −0.011.

What about the “LOAC, number” value (background ICS dose Medium) of the same compound?
The value was 6.

What about the OR vs. placebo (background ICS dose Medium) of the same compound?
Its OR vs. placebo is 0.421.

What about the RD vs. Placebo (background ICS dose Medium) of the same compound?
Its RD vs. Placebo is −0.173.

And the “LOAC, number” value (baseline ACQ-5 >2)?
Its value is 6.

And the OR vs. placebo (baseline ACQ-5 >2)?
The OR vs. placebo was 0.346.

What about the “RD vs. Placebo” value (baseline ACQ-5 >2) of the same compound?
The value was −0.181.

What about the “LOAC, number” value (baseline ACQ-5 ≤2) of the same compound?
The value was 6.

What about the OR vs. placebo (baseline ACQ-5 ≤2) of the same compound?
Its OR vs. placebo is 1.162.

And the “RD vs. Placebo” value (baseline ACQ-5 ≤2)?
Its value is 0.025.

And the “LOAC, number” value (baseline FeNO level 1 <25 ppb)?
The value was 9.

And the OR vs. placebo (baseline FeNO level 1 <25 ppb)?
The OR vs. placebo was 0.567.

What about the “RD vs. Placebo” value (baseline FeNO level 1 <25 ppb) of the same compound?
Its value is −0.065.

What about the “LOAC, number” value (baseline FeNO level 1 ≥25 ppb) of the same compound?
The value was 3.

And the OR vs. placebo (baseline FeNO level 1 ≥25 ppb)?
The OR vs. placebo was 0.798.

What about the “RD vs. Placebo” value (baseline FeNO level 1 ≥25 ppb) of the same compound?
The value was −0.053.

What about the “LOAC, number” value (baseline FeNO level 2 <35 ppb) of the same compound?
Its value is 9.

What about the OR vs. placebo (baseline FeNO level 2 <35 ppb) of the same compound?
The OR vs. placebo was 0.655.

What about the “RD vs. Placebo” value (baseline FeNO level 2 <35 ppb) of the same compound?
Its value is −0.029.

And the “LOAC, number” value (baseline FeNO level 2 ≥35 ppb)?
Its value is 3.

What about the OR vs. placebo (baseline FeNO level 2 ≥35 ppb) of the same compound?
The OR vs. placebo was 0.628.

What about the “RD vs. Placebo” value (baseline FeNO level 2 ≥35 ppb) of the same compound?
The value was −0.094.

What about the “LOAC, number” value [2] of the same compound?
The value was 6.

What about the OR vs. placebo [2] of the same compound?
The OR vs. placebo was 0.774.

What about the RD vs. Placebo [2] of the same compound?
The RD vs. Placebo was −0.011.

And the “LOAC, number” value [3]?
The value was 6.

And the OR vs. placebo [3]?
The OR vs. placebo was 0.514.

And the RD vs. Placebo [3]?
Its RD vs. Placebo is −0.120.

What about the “LOAC, number” value (baseline IgE <100 IU/mL) of the same compound?
The value was 4.

And the OR vs. placebo (baseline IgE <100 IU/mL)?
The OR vs. placebo was 0.602.

What about the “RD vs. Placebo” value (baseline IgE <100 IU/mL) of the same compound?
Its value is −0.085.

And the “LOAC, number” value [4]?
Its value is 6.

What about the OR vs. placebo [4] of the same compound?
Its OR vs. placebo is 0.681.

And the RD vs. Placebo [4]?
The RD vs. Placebo was −0.070.

What about the “LOAC, number” value (baseline IgE ≥100 IU/mL) of the same compound?
Its value is 8.

And the OR vs. placebo (baseline IgE ≥100 IU/mL)?
Its OR vs. placebo is 0.522.

What about the “RD vs. Placebo” value (baseline IgE ≥100 IU/mL) of the same compound?
The value was −0.122.

And the “LOAC, number” value [5]?
The value was 6.

And the OR vs. placebo [5]?
Its OR vs. placebo is 0.510.

And the RD vs. Placebo [5]?
The RD vs. Placebo was −0.122.

What about the “LOAC, number” value [6] of the same compound?
The value was 7.

What about the OR vs. placebo [6] of the same compound?
Its OR vs. placebo is 0.827.

And the RD vs. Placebo [6]?
Its RD vs. Placebo is −0.036.

And the OR vs. placebo [7]?
Its OR vs. placebo is 0.362.

And the RD vs. Placebo [7]?
The RD vs. Placebo was −0.176.

And the “LOAC, number” value [8]?
The value was 6.

What about the OR vs. placebo [8] of the same compound?
The OR vs. placebo was 0.716.

And the “RD vs. Placebo” value [8]?
The value was −0.062.

What about the “LOAC, number” value [9] of the same compound?
Its value is 4.

What about the OR vs. placebo [9] of the same compound?
The OR vs. placebo was 1.619.

What about the RD vs. Placebo [9] of the same compound?
The RD vs. Placebo was 0.072.

And the “LOAC, number” value [10]?
Its value is 2.

And the OR vs. placebo [10]?
The OR vs. placebo was 0.139.

And the RD vs. Placebo [10]?
The RD vs. Placebo was −0.363.

And the “LOAC, number” value [11]?
The value was 10.

What about the OR vs. placebo [11] of the same compound?
The OR vs. placebo was 1.019.

What about the “RD vs. Placebo” value [11] of the same compound?
The value was 0.047.

What about the “LOAC, number” value [12] of the same compound?
The value was 2.

What about the OR vs. placebo [12] of the same compound?
Its OR vs. placebo is 0.146.

And the “RD vs. Placebo” value [12]?
Its value is −0.350.

What about the “LOAC, number” value [13] of the same compound?
Its value is 4.

What about the OR vs. placebo [13] of the same compound?
Its OR vs. placebo is 0.441.

What about the “RD vs. Placebo” value [13] of the same compound?
The value was −0.157.

What about the “LOAC, number” value [14] of the same compound?
Its value is 4.

And the OR vs. placebo [14]?
Its OR vs. placebo is 0.452.

And the RD vs. Placebo [14]?
Its RD vs. Placebo is −0.129.

And the “LOAC, number” value [15]?
The value was 8.

What about the OR vs. placebo [15] of the same compound?
The OR vs. placebo was 0.599.

What about the RD vs. Placebo [15] of the same compound?
The RD vs. Placebo was −0.078.

And the “LOAC, number” value [16]?
The value was 7.

What about the OR vs. placebo [16] of the same compound?
Its OR vs. placebo is 0.736.

And the RD vs. Placebo [16]?
The RD vs. Placebo was −0.047.

And the OR vs. placebo [17]?
The OR vs. placebo was 0.429.

And the RD vs. Placebo [17]?
The RD vs. Placebo was −0.139.

And the “LOAC, number” value (smoking history Former)?
Its value is 2.

What about the OR vs. placebo (smoking history Former) of the same compound?
Its OR vs. placebo is 0.500.

What about the “RD vs. Placebo” value (smoking history Former) of the same compound?
The value was −0.167.

What about the “LOAC, number” value (smoking history Never) of the same compound?
Its value is 10.

And the OR vs. placebo (smoking history Never)?
The OR vs. placebo was 0.551.

And the “RD vs. Placebo” value (smoking history Never)?
Its value is −0.102.
